pIC50: −log10 of the molar value. Structures can show the parent of a compound that is named as a salt.
What was measured:
[1] = tested on: Lysozyme (dimer formation with fructose); test: Inhibitory activity on Maillard reaction: formation of lysozyme dimer (lysozyme + fructose, SDS-PAGE, densitometer); assay type: biochemical; details: lysozyme 10 mg/ml, fructose 100 mM, 0.2M sodium phosphate buffer pH 7.4, 37° C., 3 days
Method: The inhibitory activity on Maillard reaction of the compounds of the present invention has confirmed by the screening system mentioned below. Lysozyme (10 mg/ml) and fructose (100 mM) were dissolved in 0.2M sodium phosphatic buffer solution (PH 7.4). The solution was incubated at a temperature of 37° C. for 3 days. A given volume of the reaction solution was separated using SDS-PAGE by the electrophoresis. After the electrophoresis, the SDS-PAGE was dyed by 0.2% Coomassie Brilliant Blue R-250 and then the dimer was determined by densitometer. The compounds of the present invention were added before incubation and the inhibitory activity of them against the formation of the dimer was examined in various concentrations and IC50 values were calculated.

[2] = tested on: lipid peroxide formation in rat liver homogenate; test: Antioxiding effect: inhibitory activity against formation of peroxidized fat (lipid peroxide by TBA method); assay type: biochemical, Male Sprague Dawley rat; details: 200 μM FeCl2, 10% rat liver homogenate, 37° C., 1 hr
Method: The antioxiding effect of the compounds of the present invention has confirmed by the screening system which examines inhibitory activity against formation of peroxidized fat mentioned below. Male Sprague Dawley rat was fasted for 12 hrs (overnight) before experiments, and was anesthetized with ether. Rat liver was perfused with ice-cold 0.9% NaCl via the portal vein, and promptly excised. 10% Liver homogenates were prepared in ice-cold 1.15% KCl. The reaction was started by adding 200 μM FeCl2 to the liver homogenate ([…]), and incubated at 37° C. for 1 hr. Lipid peroxide was measured by the TBA method according to the method of Ohkawa (See Analytical Biochemistry,95, 351 (1979)). The compounds of the present invention were added before incubation. And the efficacy thereof was examined and calculated IC50 values thereof.

Maillard reaction = details: Brownlee et al., Science 232, 1629 (1986); cited from earlier work
[3] = tested on: advanced glycosylation end products in arterial wall connective tissue protein; details: administered to diabetic rats; Brownlee et al., Science 232, 1629 (1986); cited from earlier work

| pIC50 [1] | pIC50 [2] | Molecule | other results |
| --- | --- | --- | --- |
| 3.36 | 6.22 | Cc1c(C)c2c(c(C)c1O)CCC(C)(CCOC(=O)c1ccc(N(C)C(=N)N)cc1)O2 (stereo not shown) [1 (m), 2-(6-hydroxy-2,5,7,8-tetramethyl-3,4-dihydro-2H-benzo[1,2-b]pyran--2-yl)ethyl 4-(1-methylquanidino)-benzoate hydrochloride] |  |
|  | 6.11 | Cc1c(C)c2c(c(C)c1O)CCC(C)(CCNC(=O)C1CCC(CNC(=N)N)CC1)O2 (stereo not shown) [2 (a), N-[2-(6-hydroxy-2,4,7,8-tetramethyl-3,4-dihydro-2H-benzo[1,2-b]pyran-2-yl)-ethyl]-4-quanidinomethyl-cyclohexanecarboxamide hydrochloride] |  |
|  | 6.33 | Cc1c(C)c2c(c(C)c1O)CCC(C)(CCNC(=O)c1ccc(CNC(=N)N)cc1)O2 (stereo not shown) [2 (b), N-[2-(6-hydroxy-2,4,7,8-tetramethyl-3,4-dihydro-2H-benzo[1,2-b]pyran-2-yl)-ethyl]-4-quanidinomethyl-benzamide hydrochloride] |  |
|  | 6.22 | Cc1c(C)c2c(c(C)c1O)CCC(C)(CCOC(=O)c1ccc(CNC(=N)N)cc1)O2 (stereo not shown) [Example 1, 2-(6-hydroxy-2,5,7,8-tetramethyl-3,4-dihydro-2H-benzo[1,2-b]pyran-2-yl)ethyl 4-guanidinomethylbenzoate hydrochloride] |  |
| 3.35 | 6.18 | Cc1c(C)c2c(c(C)c1O)CCC(C)(CCNC(=O)c1ccc(NC(=N)N)cc1)O2 (stereo not shown) [Example 2, N-[2-(6-hydroxy-2,5,7,8-tetramethyl-3,4-dihydro-2H-benzo[1,2-b]pyran-2-yl)ethyl]-4-guanidinobenzamide hydrochloride] |  |
| 3.44 | 6.27 | Cc1c(C)c2c(c(C)c1O)CCC(C)(CCNC(=N)NN)O2 (stereo not shown) [Example 3, 1-amino-3-[2-(6-hydroxy-2,5,7,8-tetramethyl-3,4-dihydro-2H-benzo[1,2-b]pyran-2-yl)ethyl]guanidine hydroiodide] |  |
| 4.32 |  | Cc1c(C)c2c(c(C)c1O)CCC(C)(CCCCNC(=O)/C=C/c1ccc(NC(=N)N)cc1)O2 (stereo not shown) [Example 22, N-[4-(6-hydroxy-2,5,7,8-tetramethyl-3,4-dihydro-2H-benzo[1,2-b]pyran-2-yl)butyl]-4-guanidinocinnamamide hydrochloride] |  |
| 3.89 |  | Cc1c(C)c2c(c(C)c1O)CCC(C)(CC=CCCCCNC(=N)NN)O2 (stereo not shown) [Example 23, 2-[7-(3-aminoguanidino)hept-2-enyl]-6-hydroxy-2,5,7,8-tetramethyl-3,4-dihydro-2H-benzo[1,2,-b]pyran hydroiodide] |  |
| 3.74 |  | Cc1c(C)c2c(c(C)c1O)CCC(C)(CCN(C)C(=O)/C=C/c1ccc(NC(=N)N)cc1)O2 (stereo not shown) [Example 24, N-methyl-N-[2-(6-hydroxy-2,5,7,8-tetramethyl-3,4-dihydro2H-benzo[1,2-b]pyran-2-yl)ethyl]-4-guanidinocinnamamide hydrochloride] |  |
| 3.57 |  | Cc1c(C)c2c(c(C)c1O)CCC(C)(CCOCCNC(=N)NN)O2 (stereo not shown) [Example 26, 2-(3-aminoguanidino)ethyl 2-(6-hydroxy-2,5,7,8-tetramethyl-3,4-dihydro-2H-benzo[1,2-b]pyran-2-yl)ethyl ether hydrochloride] |  |
| 5.24 |  | Cc1c(C)c2c(c(C)c1O)CCC(C)(CCOc1ccc(CCOc3ccc(NC(=N)N)cc3)cc1)O2 (stereo not shown) [Example 27, 4-guanidinophenyl 2-[4-[2-(6-hydroxy-2,5,7,8-tetramethyl-3,4-dihydro-2H-benzo[1,2-b]pyran-2-yl)ethoxy]phenyl]ethyl ether hydrochloride] |  |
| 5.12 |  | Cc1c(C)c2c(c(C)c1O)CCC(C)(CCCCCCSc1ccc(NC(=N)N)cc1)O2 (stereo not shown) [Example 29, 4-guanidinophenyl 6-(6-hydroxy-2,5,7,8-tetramethyl-3,4-dihydro-2H-benzo[1,2-b]pyran-2-yl)-n-hexyl thioether hydrochloride] |  |
| 4.92 |  | N-[4-[2-(6-hydroxy-2,5,7,8-tetramethyl-3,4-dihydro-2H-benzo[1,2-b]pyran-2-yl)-ethoxy]phenyl]-3-guanidino-cinnamamide hydrochloride [7 (b)] |  |

Continued, molecule first:

| Molecule | pIC50 [1] | pIC50 [2] | other results |
| --- | --- | --- | --- |
| Cc1c(C)c2c(c(C)c1O)CCC(C)(CCOC(=O)c1ccc(NC(=N)N)cc1)O2 (stereo not shown) [1 (a), 2-(6-hydroxy-2,5,7,8-tetramethyl-3,4-dihydro-2H-benzo[1,2-b]pyran-2-yl)ethyl4-quanidinobenzoate hydrochloride] | 3.70 | 6.27 |  |
| Cc1c(C)c2c(c(C)c1O)CCC(C)(CCOC(=O)C1CCC(CNC(=N)N)CC1)O2 (stereo not shown) [1 (b), 2-(6-hydroxy-2,5,7,8-tetramethyl-3,4-dihydro-2H-benzo[1,2-b]pyran-2-yl)ethyl4-quanidinomethylcyclohexane carboxylatehydrochloride] |  | 6.11 |  |
| Cc1c(C)c2c(c(C)c1O)CCC(C)(CCOC(=O)CCCCNC(=N)N)O2 (stereo not shown) [1 (c), 2-(6-hydroxy-2,5,7,8-tetramethyl-3,4-dihydro-2H-benzo[1,2-b]pyran-2-yl)ethyl5-quanidinopentanoate hydrochloride] |  | 6.10 |  |
| Cc1c2c(c3ccccc3c1O)OC(C)(CCOC(=O)c1ccc(NC(=N)N)cc1)CC2 (stereo not shown) [1 (e), 2-(2,5-dimethyl-6-hydroxy-3,4-dihydro-2H-naphtho[1,2-b]pyran-2-yl)ethyl 4-quanidinobenzoatehydrochloride] | 4.30 | 6.80 |  |
| Cc1c(C)c2c(c(C)c1O)CCC(C)(CCOC(=O)CCc1ccc(NC(=N)N)cc1)O2 (stereo not shown) [1 (g), 2-(6-hydroxy-2,5,7,8-tetramethyl-3,4-dihydro-2H-benzo[1,2-b]pyran-2-yl)ethyl3-(4-quanidinophenyl)-propionate hydrochloride] |  | 6.05 |  |
| Cc1c(C)c2c(c(C)c1O)CCC(C)(CCOC(=O)/C=C/c1ccc(NC(=N)N)cc1)O2 (stereo not shown) [1 (h), 2-(6-hydroxy-2,5,7,8-tetramethyl-3,4-dihydro-2H-benzo[1,2-b]pyran-2-yl)ethyl4-quanidinocinnamate hydrochloride] | 4.28 | 6.05 |  |
| Cc1c2c(c3ccccc3c1O)OC(C)(CCOC(=O)c1ccc(CNC(=N)N)cc1)CC2 (stereo not shown) [1 (j), 2-(2,5-dimethyl-6-hydroxy-3,4-dihydro-2H-naphtho[1,2-b]pyran-2-yl)ethyl 4-quanidinomethylbenzoatehydrochloride] | 4.22 | 6.34 |  |
| Cc1c2c(c3ccccc3c1O)OC(C)(CCOC(=O)c1cccc(NC(=N)N)c1)CC2 (stereo not shown) [1 (k), 2-(2,5-dimethyl-6-hydroxy-3,4-dihydro-2H-naphtho[1,2-b]pyran-2-yl)ethyl 3-quanidinobenzoatehydrochloride] |  | 6.36 |  |
| Cc1c2c(c3ccccc3c1O)OC(C)(CCOC(=O)/C=C/c1ccc(NC(=N)N)cc1)CC2 (stereo not shown) [1 (l), 2-(2,5-dimethyl-6-hydroxy-3,4-dihydro-2H-naphtho[1,2-b]pyran-2-yl)ethyl 4-quanidinocinnamatehydrochloride] |  | 6.42 |  |
| N=C(N)NN [aminoguanidine] |  |  | inhibition of Maillard reaction in vitro (Maillard reaction): inhibits Maillard reaction in vitro; inhibition of diabetes-induced accumulation of advanced glycosylation end products in arterial wall connective tissue protein [3]: inhibits diabetes-induced accumulation of advanced glycosylation end products in arterial wall connective tissue protein |

From patent US5508450A, “Benzopyran derivatives” (Ono Pharmaceutical Co., Ltd., priority 1989, dated 1996)
